According to US8361765B2, “Enzymic method for the enantioselective reduction of keto compounds” (IEP GmbH, priority 2001, dated 2013):

Columns and labels:
[1] = tested on: alcohol dehydrogenase from Lactobacillus minor; experiment: Spectrum of substrates; format: biochemical; settings: 10 mM keto compound as substrate, 0.19 mM NADPH, pH 7.0; activity with ethyl 4-chloro-3-oxo-butanoate set to 100%
Description: Furthermore, substrates other than ethyl 4-chloro-3-oxo-butanoate were also used in the enzymic assay mixture. For this purpose, the following assay mixture was used: • 970 μl of triethanolamine buffer (100 mM, pH=7.0, 1 mM MgCl2 containing 10 mM keto compound) • 20 μl of NADPH (0.19 mM in assay mixture) • 10 μl of enzyme (1:100)
The activity determined with ethyl 4-chloro-3-oxo-butanoate was set to 100% and the enzyme activities of the other substrates were related to this value.

[2] = tested on: L. minor alcohol dehydrogenase; experiment: Enzyme stability in organic solvents; format: biochemical, Lactobacillus minor; settings: for Enzyme activity relative to starting value, t = 2 h / Enzyme activity relative to starting value, t = 8 h / Enzyme activity relative to starting value, t = 24 h / Enzyme activity relative to starting value, t = 48 h: room temperature; for action of the solvent on the alcohol dehydrogenase (in words): Table 7
Description: The stability of the enzyme when contacted with organic solvents was studied by diluting L. minor alcohol dehydrogenase 1:100 in the solvent mixtures listed, followed by incubation at room temperature (for organic solvents not miscible with water, the dilution refers to the aqueous phase). Continuous mixing of both phases was ensured (shaker, 200 rpm). 10 μl of the enzyme solution were then used in the standard assay mixture. Here too, the starting value was set to 100% after dilution in the buffer (triethanolamine buffer 100 mM, pH=7.0, 1 mM MgCl2), with all other values being related to this value.

[3] = octanol/water; cited from earlier work
[4] = 10% water-miscible solvent in buffer
[5] = 20% water-miscible solvent in buffer
[6] = 20% solvent not miscible with water, two phases shaken 200 rpm

Row | Compound | action of the solvent on the alcohol dehydrogenase (in words) [2] | logP [3] | Enzyme activity relative to starting value, t = 2 h [2, 6] [%] | Enzyme activity relative to starting value, t = 8 h [2, 6] [%] | Enzyme activity relative to starting value, t = 24 h [2, 6] [%] | Enzyme activity relative to starting value, t = 48 h [2, 6] [%] | also measured
1 | CCCCCCC(C)=O [2-Octanone] |  |  |  |  |  |  | Activity in % (n = 2) [1]: 90.8 ± 1.2%
2 | C[S+](C)[O-] [DMSO, dimethyl sulfoxide] | activating and, respectively, stabilizing action |  |  |  |  |  | Enzyme activity relative to starting value, t = 2 h [2, 4]: 73%; Enzyme activity relative to starting value, t = 8 h [2, 4]: 54%; Enzyme activity relative to starting value, t = 24 h [2, 4]: 60%; Enzyme activity relative to starting value, t = 48 h [2, 4]: 40%; Enzyme activity relative to starting value, t = 2 h [2, 5]: 73%; Enzyme activity relative to starting value, t = 8 h [2, 5]: 54%; Enzyme activity relative to starting value, t = 24 h [2, 5]: 57%; Enzyme activity relative to starting value, t = 48 h [2, 5]: 40%
3 | CCOC(=O)C(=O)CCc1ccccc1 [Ethyl 2-oxo-4-phenylbutyrate] |  |  |  |  |  |  | Activity in % (n = 2) [1]: 62.7 ± 4.8%
4 | CCOC(=O)CC(=O)CCl [Ethyl 4-chloro-3-oxo-butanoate] |  |  |  |  |  |  | Activity in % (n = 2) [1]: 100%
5 | CCOC(=O)C(C)=O [Ethyl pyruvate] |  |  |  |  |  |  | Activity in % (n = 2) [1]: 192.3 ± 11.5%
6 | COC(=O)CC(C)=O [Methyl acetoacetate] |  |  |  |  |  |  | Activity in % (n = 2) [1]: 120 ± 7.7%
7 | CCOCC [diethyl ether] |  | 0.85 | 53 | 42 | 37 | 23 | 
8 | CC(C)OC(C)C [diisopropyl ether] |  | 1.55 | 100 | 57 | 41 | 29 | 
9 | CCOC(C)=O [ethyl acetate] |  |  | 87 | 50 | 10 | 8 | 
10 | OCC(O)CO [glycerol] | activating and, respectively, stabilizing action | −3 |  |  |  |  | Enzyme activity relative to starting value, t = 2 h [2, 4]: 120%; Enzyme activity relative to starting value, t = 8 h [2, 4]: 64%; Enzyme activity relative to starting value, t = 24 h [2, 4]: 62%; Enzyme activity relative to starting value, t = 48 h [2, 4]: 28%; Enzyme activity relative to starting value, t = 2 h [2, 5]: 120%; Enzyme activity relative to starting value, t = 8 h [2, 5]: 100%; Enzyme activity relative to starting value, t = 24 h [2, 5]: 100%; Enzyme activity relative to starting value, t = 48 h [2, 5]: 104%
11 | CCCCCCC [heptane] | do not exhibit this stabilizing action | 4 | 51 | 49 | 7 | 6 | 
12 | CCCCCC [hexane] | do not exhibit this stabilizing action |  | 80 | 39 | 2 | 5 | 
13 | CC(C)O [isopropanol] | inactivating action |  |  |  |  |  | 
14 | CCCCCCCC [octane] | do not exhibit this stabilizing action |  | 87 | 47 | 2 | 1 | 
15 | CCCCC [pentane] | do not exhibit this stabilizing action | 3 | 74 | 55 | 7 | 6 | 
16 | OC[C@@H](O)[C@@H](O)[C@H](O)[C@@H](O)CO [sorbitol] | activating and, respectively, stabilizing action |  |  |  |  |  | Enzyme activity relative to starting value, t = 2 h ([2]; 1M in buffer): 93%; Enzyme activity relative to starting value, t = 8 h ([2]; 1M in buffer): 74%; Enzyme activity relative to starting value, t = 24 h ([2]; 1M in buffer): 60%; Enzyme activity relative to starting value, t = 48 h ([2]; 1M in buffer): 6%
17 | COC(C)(C)C [tert-butyl methyl ether] |  | 1.21 | 67 | 51 | 38 | 24 | 
